Laboratory results as given in PubChem BioAssay AID330 (DTP/NCI, 2004).
Several values for one entry are separate records, joined by “and”; a condition that tells them apart may be missing. Equal values may be shown once. Inconclusive results and toxic doses are left out.

Tested on: P388 leukemia ip, CD2F1 mice, survival T/C
Test: NCI In Vivo Anticancer Drug Screen. Data for tumor model P388 Leukemia (intraperitoneal) in CD2F1 (CDF1) mice
Details: endpoint: median survival time, higher = longer survival
Outline: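 Mice carrying the transplanted tumor received test compound or vehicle. Survival was recorded in each group, and the value is the treated-group measurement divided by that of the vehicle-treated control group.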

[1] = dose: 50.0 mg/kg/injection, schedule: Q01DX009 (ip), vehicle: saline
[2] = dose: 100.0 mg/kg/injection, schedule: Q01DX009 (ip), vehicle: saline
[3] = dose: 200.0 mg/kg/injection, schedule: Q01DX009 (ip), vehicle: saline
[4] = dose: 50.0 mg/kg/injection, schedule: Q01DX009 (ip), vehicle: saline with Tween-80
[5] = dose: 100.0 mg/kg/injection, schedule: Q01DX009 (ip), vehicle: saline with Tween-80
[6] = dose: 50.0 mg/kg/injection, schedule: Q01DX009 (ip), vehicle: Klucel (hydroxypropylcellulose) (HPC)
[7] = dose: 100.0 mg/kg/injection, schedule: Q01DX009 (ip), vehicle: Klucel (hydroxypropylcellulose) (HPC)
[8] = dose: 200.0 mg/kg/injection, schedule: Q01DX009 (ip), vehicle: Klucel (hydroxypropylcellulose) (HPC)
[9] = dose: 60.0 mg/kg/injection, schedule: Q01DX005 (ip), vehicle: saline with Tween-80
[10] = dose: 120.0 mg/kg/injection, schedule: Q01DX005 (ip), vehicle: saline with Tween-80
[11] = dose: 50.0 mg/kg/injection, schedule: Q01DX005 (ip), vehicle: Klucel (hydroxypropylcellulose) (HPC)
[12] = dose: 100.0 mg/kg/injection, schedule: Q01DX005 (ip), vehicle: Klucel (hydroxypropylcellulose) (HPC)
[13] = dose: 50.0 mg/kg/injection, schedule: Q01DX005 (ip), vehicle: saline with Tween-80
[14] = dose: 100.0 mg/kg/injection, schedule: Q01DX005 (ip), vehicle: saline with Tween-80
[15] = dose: 200.0 mg/kg/injection, schedule: Q01DX005 (ip), vehicle: saline with Tween-80
[16] = dose: 200.0 mg/kg/injection, schedule: Q01DX009 (ip), vehicle: saline with Tween-80
[17] = dose: 12.5 mg/kg/injection, schedule: Q01DX005 (ip), vehicle: Klucel (hydroxypropylcellulose) (HPC)
[18] = dose: 25.0 mg/kg/injection, schedule: Q01DX005 (ip), vehicle: Klucel (hydroxypropylcellulose) (HPC)

## O=c1[nH]c(N2CCNCC2)nc2ccccc12
[1]
  T/C: 102 % of control
[2]
  T/C: 101 % of control
[3]
  T/C: 104 % of control

## CCOc1n[n+]([O-])c(Cl)cc1[N+](=O)[O-]
dose: 25.0 mg/kg/injection, schedule: Q01DX009 (ip), vehicle: saline with Tween-80
  T/C: 103 % of control
[4]
  T/C: 102 % of control
[5]
  T/C: 100 % of control

## C=CCn1c(Br)nc2c1c(=O)n(CC)c(=O)n2CC
dose: 16.0 mg/kg/injection, schedule: Q01DX009 (ip), vehicle: Klucel (hydroxypropylcellulose) (HPC)
  T/C: 107 % of control
dose: 32.0 mg/kg/injection, schedule: Q01DX009 (ip), vehicle: Klucel (hydroxypropylcellulose) (HPC)
  T/C: 107 % of control
[6]
  T/C: 89 % of control
dose: 64.0 mg/kg/injection, schedule: Q01DX009 (ip), vehicle: Klucel (hydroxypropylcellulose) (HPC)
  T/C: 93 % of control
[7]
  T/C: 91 % of control
[8]
  T/C: 94 % of control

## COc1cc(C2c3cc4c(cc3C(OC3CCCCO3)C3COC(=O)C23)OCO4)cc(OC)c1OC (centres undefined)
dose: 3.12 mg/kg/injection, schedule: Q01DX005 (ip), vehicle: Klucel (hydroxypropylcellulose) (HPC)
  T/C: 117 % of control

## CCCCCC(=O)OCCN1CCN(CCCN2c3ccccc3Sc3ccc(C(F)(F)F)cc32)CC1
dose: 12.5 mg/kg/injection, schedule: Q01DX009 (ip), vehicle: Klucel (hydroxypropylcellulose) (HPC)
  T/C: 113 % of control
dose: 25.0 mg/kg/injection, schedule: Q01DX009 (ip), vehicle: Klucel (hydroxypropylcellulose) (HPC)
  T/C: 101 % of control

## COC(=O)CCC(=O)C(C#N)c1ccc(Cl)c(Cl)c1 (centres undefined)
[9]
  T/C: 101 % of control
[10]
  T/C: 101 % of control

## C=CCSc1nc2ccc(NC(=O)/C=C/C(=O)O)cc2s1
[6]
  T/C: 95 % of control
[7]
  T/C: 93 % of control
[8]
  T/C: 102 % of control

## NC(c1ccccc1)c1cccs1 (centres undefined)
[11]
  T/C: 100 % of control
[12]
  T/C: 105 % of control

## CC1CCCC(CC2CCCC[N-]2)[N-]1.CC1CCCC(CC2CCCC[N-]2)[N-]1.[Ni+2].[O-][Cl+3]([O-])([O-])O (centres undefined)
dose: 25.0 mg/kg/injection, schedule: Q01DX001 (ip), vehicle: saline
  T/C: 95 % of control
dose: 50.0 mg/kg/injection, schedule: Q01DX001 (ip), vehicle: saline
  T/C: 94 % of control
dose: 100.0 mg/kg/injection, schedule: Q01DX001 (ip), vehicle: saline
  T/C: 108 % of control and 95 % of control

## CCN(CC)CCN1CC(=O)N2CCCCN2C(=O)C1
dose: 50.0 mg/kg/injection, schedule: Q01DX005 (ip), vehicle: saline
  T/C: 104 % of control
dose: 100.0 mg/kg/injection, schedule: Q01DX005 (ip), vehicle: saline
  T/C: 102 % of control
dose: 200.0 mg/kg/injection, schedule: Q01DX005 (ip), vehicle: saline
  T/C: 95 % of control

## O=C(O)c1ccccc1NCc1ccco1
[13]
  T/C: 91 % of control
[14]
  T/C: 96 % of control
[15]
  T/C: 89 % of control

## COc1ccccc1NC(=S)N/N=C\c1cc(N=Nc2ccccc2)cc(OC)c1O
[13]
  T/C: 89 % of control
[14]
  T/C: 89 % of control

## Cc1cc2nc(CN)[nH]c2cc1C
dose: 50.0 mg/kg/injection, schedule: Q04DX003 (ip), vehicle: saline
  T/C: 100 % of control
dose: 100.0 mg/kg/injection, schedule: Q04DX003 (ip), vehicle: saline
  T/C: 100 % of control
dose: 200.0 mg/kg/injection, schedule: Q04DX003 (ip), vehicle: saline
  T/C: 95 % of control

## CCCCCCC(=O)/C=C/c1cccc(OC)c1OC
[4]
  T/C: 99 % of control
[5]
  T/C: 107 % of control
[16]
  T/C: 105 % of control

## COc1ccc(C(=O)O[C@@H]2CCN3CC[C@H](C)[C@H]23)cc1
[17]
  T/C: 102 % of control
[18]
  T/C: 102 % of control
[11]
  T/C: 104 % of control

## Nc1c(Cl)sc2ccccc2c1=O
[13]
  T/C: 91 % of control
[14]
  T/C: 91 % of control
[15]
  T/C: 104 % of control

## COC(=O)n1sc(SC)nc1=N
[17]
  T/C: 88 % of control
[18]
  T/C: 114 % of control
[11]
  T/C: 100 % of control and 114 % of control

## CCN(CC#N)c1ccc(C=Nc2ccc(OC)cc2OC)cc1
[4]
  T/C: 91 % of control
[5]
  T/C: 93 % of control
[16]
  T/C: 97 % of control

## Cc1ccccc1N1C(=O)[N+]2(CCCCC2)N=C1[O-]
dose: 100.0 mg/kg/injection, schedule: Q04DX003 (ip), vehicle: saline with Tween-80
  T/C: 99 % of control
dose: 200.0 mg/kg/injection, schedule: Q04DX003 (ip), vehicle: saline with Tween-80
  T/C: 100 % of control
dose: 400.0 mg/kg/injection, schedule: Q04DX003 (ip), vehicle: saline with Tween-80
  T/C: 92 % of control

## CC(=O)OC1OC(COS(=O)(=O)c2ccc(C)cc2)C(OC(C)=O)C(OC(C)=O)C1OC(C)=O (centres undefined)
dose: 12.5 mg/kg/injection, schedule: Q01DX009 (ip), vehicle: other
  T/C: 93 % of control
dose: 25.0 mg/kg/injection, schedule: Q01DX009 (ip), vehicle: other
  T/C: 90 % of control
dose: 100.0 mg/kg/injection, schedule: Q01DX009 (ip), vehicle: other
  T/C: 87 % of control
dose: 200.0 mg/kg/injection, schedule: Q01DX009 (ip), vehicle: other
  T/C: 92 % of control

## CCCCCCCCCCCCCC[N+]1([O-])CCCCCC1
[1]
  T/C: 90 % of control

## O=c1[nH]nc(-c2ccccc2)c2c1[nH]c1ccccc12
[9]
  T/C: 93 % of control
[10]
  T/C: 96 % of control
dose: 240.0 mg/kg/injection, schedule: Q01DX005 (ip), vehicle: saline with Tween-80
  T/C: 86 % of control

## COc1cc([N+](=O)[O-])cc2c1OC1(C=C2)Oc2ccccc2N1C (centres undefined)
dose: 15.0 mg/kg/injection, schedule: Q01DX005 (ip), vehicle: Klucel (hydroxypropylcellulose) (HPC)
  T/C: 103 % of control
dose: 30.0 mg/kg/injection, schedule: Q01DX005 (ip), vehicle: Klucel (hydroxypropylcellulose) (HPC)
  T/C: 100 % of control
dose: 60.0 mg/kg/injection, schedule: Q01DX005 (ip), vehicle: Klucel (hydroxypropylcellulose) (HPC)
  T/C: 94 % of control
dose: 120.0 mg/kg/injection, schedule: Q01DX005 (ip), vehicle: Klucel (hydroxypropylcellulose) (HPC)
  T/C: 100 % of control

## CC(=NCCN=C(C)c1cc(C)cc(Br)c1O)c1cc(C)cc(Br)c1O
[11]
  T/C: 108 % of control
[12]
  T/C: 101 % of control
dose: 200.0 mg/kg/injection, schedule: Q01DX005 (ip), vehicle: Klucel (hydroxypropylcellulose) (HPC)
  T/C: 117 % of control

## C[n+]1c(-c2ccc(/C=N/Nc3n[nH]c(=S)n3/N=C/c3ccc(-c4cn5ccsc5[n+]4C)cc3)cc2)cn2ccsc21
dose: 1.87 mg/kg/injection, schedule: Q01DX005 (ip), vehicle: saline with Tween-80
  T/C: 101 % of control

## COc1c2occc2c(OC)c2/c(=N/O)cc(C)oc12
[1]
  T/C: 107 % of control
[2]
  T/C: 98 % of control
[3]
  T/C: 97 % of control

## C/C=C(\C)C(=O)OC1CC(C)(C)C2C3C(=O)C=C(C)C2C3(C)C1OC(=O)/C(C)=C/C (centres undefined)
dose: 75.0 mg/kg/injection, schedule: Q01DX001 (ip), vehicle: Klucel (hydroxypropylcellulose) (HPC)
  T/C: 97 % of control
dose: 150.0 mg/kg/injection, schedule: Q01DX001 (ip), vehicle: Klucel (hydroxypropylcellulose) (HPC)
  T/C: 98 % of control
dose: 300.0 mg/kg/injection, schedule: Q01DX001 (ip), vehicle: Klucel (hydroxypropylcellulose) (HPC)
  T/C: 101 % of control

## CC(C)COC1OCCCC1C(OCC(C)C)C(C)C (centres undefined)
[2]
  T/C: 108 % of control
[3]
  T/C: 113 % of control
dose: 400.0 mg/kg/injection, schedule: Q01DX009 (ip), vehicle: saline
  T/C: 99 % of control
